According to PMC3631453 (ACS chemical biology, 2013):
Marks after values point to notes of the source that are not given here.

What was measured:
ERβ = ERβ (Homo sapiens, UniProt Q92731); assay: ER-regulated reporter gene; details: U2OS, read-out: Hormonal activity (U2OS Cells) ERβ IA (intrinsic activity)
U2OS cells = assay: Cell density of transfected U2OS cells; assay type: cell-based
full-length human ERβ = full-length human ERβ (Homo sapiens, UniProt Q92731); details: relative to E2 = 100%; cited from earlier work
Sequence of full-length human ERβ (Q92731 whole entry): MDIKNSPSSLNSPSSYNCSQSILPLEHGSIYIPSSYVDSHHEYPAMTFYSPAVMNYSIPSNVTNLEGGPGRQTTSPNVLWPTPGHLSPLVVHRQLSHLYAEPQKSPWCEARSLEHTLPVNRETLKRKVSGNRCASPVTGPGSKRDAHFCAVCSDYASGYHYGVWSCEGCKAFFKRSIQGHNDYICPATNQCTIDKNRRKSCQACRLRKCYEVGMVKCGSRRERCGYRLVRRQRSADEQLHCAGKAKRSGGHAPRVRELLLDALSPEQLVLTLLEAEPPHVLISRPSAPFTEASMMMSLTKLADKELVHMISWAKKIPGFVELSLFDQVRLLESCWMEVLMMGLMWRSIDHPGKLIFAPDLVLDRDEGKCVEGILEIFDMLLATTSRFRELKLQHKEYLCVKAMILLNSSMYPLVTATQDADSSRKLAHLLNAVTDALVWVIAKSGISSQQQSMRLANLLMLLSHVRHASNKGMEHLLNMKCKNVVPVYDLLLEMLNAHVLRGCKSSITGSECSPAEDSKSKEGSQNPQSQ

MCF-7 = assay: Growth inhibition of ER-positive MCF-7 cells, 96h; assay type: cell-based; details: read-out: Growth inhibition IC50 after 96h MCF7, OHT ligands
MDA-MB-231 = assay: Growth inhibition of ER-negative MDA-MB-231 cells, 96h; assay type: cell-based; details: read-out: Growth inhibition IC50 after 96h MDA-MB-231, OHT ligands

Sequence of ERβ (Q92731 whole entry): as above

Row | Emax (ERβ) | Hormonal activity (U2OS Cells) ERα CD (cell density) (U2OS cells; 10nM) | Hormonal activity (U2OS Cells) ERβ CD (cell density) (U2OS cells; 10nM) | IC50 (MCF-7) | Hormonal activity (U2OS Cells) ERα CD (cell density) (U2OS cells; 1μM) | Hormonal activity (U2OS Cells) ERβ CD (cell density) (U2OS cells; 1μM) | IC50 (MDA-MB-231) | SMILES | RBA for ERβ (full-length human ERβ)
1 | 111% | 103% | 90% |  |  |  |  | CC/C(=C(/CC)c1ccc(O)cc1)c1ccc(O)cc1 [DES, diethylstilbestrol] | 278 ± 54 ^f %
2 |  |  |  | 150 nM | 110% | 92% | 4.59 µM | CC/C(=C(\c1ccc(O)cc1)c1ccc(OCCN(C)C)cc1)c1ccccc1 [OHT, hydroxytamoxifen] | 
